Reference: patent EP4711365A1 (Shanghai Hansoh Biomedical Co., Ltd., priority 2023, dated 2024)

How the values were obtained:
[1] = test system: Groα secretion by HT-29 cells; assay: Inhibition of Groα secretion by HT-29 cells stimulated with IL-17A (ELISA); type: cell-based, Human; conditions: Homo sapiens, IL-17A 30 ng/ml, Groα in supernatant
Method: Test example 2 Assay for inhibitory effect of compounds of the present invention against Groα secretion by HT-29 cells
Experimental objective: to measure the inhibitory effect of the compounds against Groα secretion by HT-29 cells, thereby evaluating the inhibition of the compounds on IL-17A pathway.
Experimental method: A cell suspension at 50,000 cells/ml was prepared, and 200 µl of the cell suspension was added to each well of a 96-well plate, i.e., 10,000 cells/well. The plate was cultured overnight. In the 96-well V-bottom plate, 5 mM compound solution was serially diluted 3-fold using DMSO, and the compound from each well was diluted 100-fold using a complete culture medium. IL-17A protein (R&D, #BT7955-025/CF) with a stock concentration of 100 µg/ml was diluted 333.33-fold using a complete culture medium. The compound and IL-17A were mixed at a volume ratio of 1:1 and incubated at 37°C for 30 minutes. 50 µl of a mixture of the compound and IL-17A was added to cell wells, and the final concentration of IL-17A protein was 30 ng/ml.
The mixture was incubated in a 37°C, 5% CO2 cell culture incubator for 48 hours. The concentration of Groα in the supernatant was determined by ELISA method using Human Groα Valukin Elisa kit (Biotechne, # VAL139), and the absorbance intensity at 450 nm was measured using a microplate reader (PE, EnVision2105). Data were analysed using GraphPad Prism 8.3.0.
Experimental data processing method: Data were analysed using GraphPad Prism 8.3.0.
Inhibition rate% = [(average value of positive control wells - value of sample wells)/(average value of positive control wells - average value of negative control wells)] × 100%, where the sample wells are wells containing cells plus compounds at different concentration gradients, the positive control wells are wells containing cells plus IL-17A, and the negative control wells are wells containing culture medium plus IL-17A.
Curve fitting: The IC50 value was obtained by curve fitting based on the inhibition rate (%) at each concentration using the log(inhibitor) vs. responseVariable slope (four parameters) in GraphPad Prism 6.0, and the calculation equation was Y = Bottom + (Top-Bottom)/(1+10^((LogIC50-X)*HillSlope)).

[2] = Pharmacokinetic assay in Wistar rats, oral; conditions: rat, 30 mg/kg
Method: Experimental objective: to study the pharmacokinetic behaviours of the compounds of the present invention in the body (plasma) of Wistar rats as test animals after oral administration at a dose of 30 mg/kg. • 2. Experimental scheme • 2.1 Test drugs: the examples of the present invention, prepared in house. • 2.2 Test animals: Wistar rats (female, 3 rats per group), from Beijing Vital River Laboratory Animal Technology Co., Ltd., with the animal production license no.
Solutol HS15 was melted in a water bath at 50-60°C, and then 50 mL of the melted Solutol HS15 was added to 450 mL of ultrapure water. The mixture was stirred and sonicated to obtain 500 mL of 10% Solutol HS15 solution. The compound was weighed, and according to the total administration volume, 30% PEG solution was first added. The mixture was shaken uniformly and sonicated until a clear solution was obtained. Subsequently, 70% (10% Solutol) in water was added, resulting in a colourless and clear solution with a concentration of 3.0 mg/mL.
2.4 Administration scheme: After overnight fasting, 3 female Wistar rats per group were administered orally (PO) at a dose of 30 mg/kg with an administration volume of 10 mL/kg.
• 1) To 50 uL of plasma sample was added 250 uL of acetonitrile for precipitation, and the mixture was mixed and then centrifuged at 4°C at 4000 rpm for 20 minutes. • 2) The treated supernatant solution was taken and subjected to LC/MS/MS to analyse the concentration of the test compounds. LC/MS/MS analysis instrument: AB Sciex API-4000 Qtrap-Shimadzu Controller-CBM20A.
• Chromatographic column: Waters Xbridge C18 3.5 um 2.1*50 mm • Mobile phase: solution A: 0.1% formic acid in water, and solution B: 0.1% formic acid in acetonitrile • Flow rate: 0.6 mL/min • Elution time: 0-3.5 minutes, with eluents as follows:

Structure (SMILES) | IC50 ([1]; HT-29, 48 h) | AUC(0-t) ([2]; in vivo) | Cmax ([2]; in vivo) | Tmax ([2]; in vivo) | half-life ([2]; in vivo) | IC50 ([1]; 48 hours) | AUC(0-t) ([2]; plasma) | Cmax ([2]; plasma) | Tmax ([2]; plasma) | half-life ([2]; plasma)
[2H]C([2H])([2H])C([2H])([2H])n1nccc1C(=O)NC(C(=O)Nc1ncc(C(COC)n2cc(Cl)ccc2=O)s1)C1CCC(C)CC1 (centres unmarked) [Example 586] | 8.1 nM | 15300 ng·h/mL | 1750 ng/mL | 2 h | 4.3 h |  |  |  |  | 
[2H]C([2H])([2H])C([2H])([2H])n1nccc1C(=O)NC(C(=O)Nc1ncc(C(COC)N2CC(F)(F)CCC2=O)s1)C1CCC(C)CC1 [Example 613, N-((S)-2-((5-((R)-1-(5,5-difluoro-2-carbonylpiperidin-1-yl)-2-methoxyethyl)thiazol-2-yl)amino)-1-((1r,4S)-4-methylcyclohexyl)-2-carbonylethyl)-1-(ethyl-d5)-1H-pyrazole-5-carboxamide] |  |  |  |  |  | 5.6 nM | 21000 ng·h/mL | 3300 ng/mL | 2 h | 2.6 h
[2H]C([2H])([2H])C([2H])([2H])n1nccc1C(=O)N[C@H](C(=O)Nc1ncc([C@@H](CN2CCOCC2)N2CC(F)(F)CCC2=O)s1)[C@H]1CC[C@H](C)CC1 [Example 624, N-((S)-2-((5-((R)-1-(5,5-difluoro-2-oxopiperidin-1-yl)-2-morpholinoethyl)thiazol-2-yl)amino)-1-((1r,4S)-4-methylcyclohexyl)-2-oxoethyl)-1-(ethyl-d5)-1H-pyrazole-5-carboxamide] |  |  |  |  |  | 4.3 nM | 11000 ng·h/mL | 3400 ng/mL | 1 h | 1 h
[2H]C([2H])([2H])C([2H])([2H])n1nccc1C(=O)N[C@H](C(=O)Nc1ncc([C@@H](CN2CCO[C@H](C)C2)N2CC(F)(F)CCC2=O)s1)[C@H]1CC[C@H](C)CC1 [Example 627, N-((S)-2-((5-((R)-1-(5,5-difluoro-2-oxopiperidin-1-yl)-2-((R)-2-methylmorpholino)ethyl)thiazol-2-yl)amino)-1-((1r,4S)-4-methylcyclohexyl)-2-oxoethyl)-1-(ethyl-d5)-1H-pyrazole-5-carboxamide] |  |  |  |  |  | 6.3 nM | 22100 ng·h/mL | 2530 ng/mL | 4 h | 3.2 h
[2H]C([2H])([2H])C([2H])([2H])n1nccc1C(=O)N[C@H](C(=O)Nc1ncc([C@@H](CN2CCO[C@@H](C)C2)N2CC(F)(F)CCC2=O)s1)[C@H]1CC[C@H](C)CC1 [Example 628] |  | 20900 ng·h/mL | 2270 ng/mL | 4 h | 3.3 h | 6.7 nM |  |  |  | 
CCn1nccc1C(=O)N[C@H](C(=O)Nc1ncc([C@@H](CN2CCC(OC)CC2)N2CC(F)(F)CCC2=O)s1)[C@H]1CC[C@H](C)CC1 [Example 646] | 8 nM | 19800 ng·h/mL | 3830 ng/mL | 2 h | 2.4 h |  |  |  |  | 
C[C@H]1CC[C@H]([C@H](NC(=O)C2(F)CC2)C(=O)Nc2ncc([C@@H](CN3CCC(C(F)(F)F)CC3)N3CC(F)(F)CNC3=O)s2)CC1 [Example 774, N-((S)-2-((5-((R)-1-(5,5-difluoro-2-oxotetrahydropyrimidin-1(2H)-yl)-2-(4-(trifluoromethyl)piperidin-1-yl)ethyl)thiazol-2-yl)amino)-1-((1r,4S)-4-methylcyclohexyl)-2-oxoethyl)-1-fluorocyclopropane-1-carboxamide] | 5 nM | 24400 ng·h/mL | 2310 ng/mL | 4 h | 4.5 h |  |  |  |  | 
[2H]C([2H])([2H])C([2H])([2H])n1nccc1C(=O)N[C@H](C(=O)Nc1ncc([C@@H](CN2CCOC[C@@H]2C)N2CC(F)(F)CCC2=O)s1)[C@H]1CC[C@H](C)CC1 [Example 816] | 4.6 nM | 28400 ng·h/mL | 2540 ng/mL | 4 h | 3.8 h |  |  |  |  | 
[2H]C([2H])([2H])C([2H])([2H])n1nccc1C(=O)NC(C(=O)Nc1ncc(C(CN2CCOCC2C)N2CC(F)(F)CCC2=O)s1)C1CCC(C)CC1 (centres unmarked) [Example 818] | 2.6 nM | 15500 ng·h/mL | 2650 ng/mL | 2 h | 3.1 h |  |  |  |  | 
[2H]C([2H])([2H])C([2H])([2H])n1nccc1C(=O)N[C@H](C(=O)Nc1ncc([C@@H](CN2C[C@@H](C)O[C@@H](C)C2)N2CC(F)(F)CCC2=O)s1)[C@H]1CC[C@H](C)CC1 [Example 849, N-((S)-2-((5-((R)-1-(5,5-difluoro-2-oxopiperidin-1-yl)-2-((2R,6S)-2,6-dimethylmorpholino)ethyl)thiazol-2-yl)amino)-1-((1r,4S)-4-methylcyclohexyl)-2-oxoethyl)-1-(ethyl-d5)-1H-pyrazole-5-carboxamide] |  |  |  |  |  | 4 nM | 15500 ng·h/mL | 2480 ng/mL | 2 h | 2.8 h
[2H]C([2H])([2H])C([2H])([2H])n1nccc1C(=O)N[C@H](C(=O)Nc1ncc([C@@H](CN2C[C@H](C)O[C@@H](C)C2)N2CC(F)(F)CCC2=O)s1)[C@H]1CC[C@H](C)CC1 [Example 854, N-((S)-2-((5-((R)-1-(5,5-difluoro-2-oxopiperidin-1-yl)-2-((2S,6S)-2,6-dimethylmorpholino)ethyl)thiazol-2-yl)amino)-1-((1r,4S)-4-methylcyclohexyl)-2-oxoethyl)-1-(ethyl-d5)-1H-pyrazole-5-carboxamide] |  |  |  |  |  | 9 nM | 14900 ng·h/mL | 2170 ng/mL | 1 h | 3 h
[2H]C([2H])([2H])C([2H])([2H])n1nccc1C(=O)N[C@H](C(=O)Nc1ncc([C@@H](CN2C[C@@H](C)O[C@H](C)C2)N2CC(F)(F)CCC2=O)s1)[C@H]1CC[C@H](C)CC1 [Example 857, N-((S)-2-((5-((R)-1-(5,5-difluoro-2-oxopiperidin-1-yl)-2-((2R,6R)-2,6-dimethylmorpholino)ethyl)thiazol-2-yl)amino)-1-((1r,4S)-4-methylcyclohexyl)-2-oxoethyl)-1-(ethyl-d5)-1H-pyrazole-5-carboxamide] |  |  |  |  |  | 2.4 nM | 15900 ng·h/mL | 2290 ng/mL | 2 h | 3.5 h
[2H]C([2H])([2H])C([2H])([2H])n1nccc1C(=O)NC(C(=O)Nc1ncc(C(CN2CC(C)OCC2C)N2CC(F)(F)CCC2=O)s1)C1CCC(C)CC1 [Example 864, N-((S)-2-((5-((R)-1-(5,5-difluoro-2-oxopiperidin-1-yl)-2-((2R,5S)-2,5-dimethylmorpholino)ethyl)thiazol-2-yl)amino)-1-((1r,4S)-4-methylcyclohexyl)-2-oxoethyl)-1-(ethyl-d5)-1H-pyrazole-5-carboxamide] | 3 nM | 15700 ng·h/mL | 1600 ng/mL | 4 h | 3.7 h |  |  |  |  | 
[2H]C([2H])([2H])C([2H])([2H])n1nccc1C(=O)N[C@H](C(=O)Nc1ncc([C@@H](CN2CCC(CF)CC2)N2CC(F)(F)CCC2=O)s1)[C@H]1CC[C@H](C)CC1 [Example 928] | 4 nM | 18900 ng·h/mL | 2160 ng/mL | 4 h | 4.5 h |  |  |  |  | 
[2H]C([2H])([2H])C([2H])([2H])n1nccc1C(=O)N[C@H](C(=O)Nc1ncc([C@@H](CN2CCC(C(F)F)CC2)N2CC(F)(F)CCC2=O)s1)[C@H]1CC[C@H](C)CC1 [Example 938] | 4.4 nM | 12500 ng·h/mL | 1240 ng/mL | 4 h | 6 h |  |  |  |  | 
[2H]C([2H])([2H])C([2H])([2H])n1nccc1C(=O)N[C@H](C(=O)Nc1ncc([C@@H](CN2CCC(C(F)(F)F)CC2)N2CC(F)(F)CCC2=O)s1)[C@H]1CC[C@H](C)CC1 [Example 948] | 6.5 nM | 18800 ng·h/mL | 1710 ng/mL | 4 h | 9.3 h |  |  |  |  | 
[2H]C([2H])([2H])C([2H])([2H])n1nccc1C(=O)N[C@H](C(=O)Nc1ncc([C@@H](CN2CCC3(CC2)CC3(F)F)N2CC(F)(F)CCC2=O)s1)[C@H]1CC[C@H](C)CC1 [Example 958] | 2.3 nM | 13200 ng·h/mL | 1500 ng/mL | 4 h | 9.4 h |  |  |  |  | 
[2H]C([2H])([2H])OC1CCN(CC(c2cnc(NC(=O)C(NC(=O)c3ccnn3C([2H])([2H])C([2H])([2H])[2H])C3CCC(C)CC3)s2)N2CC(F)(F)CCC2=O)CC1F (centres unmarked) [Example 992] | 3.5 nM | 24600 ng·h/mL | 4930 ng/mL | 2 h | 2.9 h |  |  |  |  | 
[2H]C([2H])([2H])O[C@@H]1CCN(C[C@H](c2cnc(NC(=O)[C@@H](NC(=O)c3ccnn3C([2H])([2H])C([2H])([2H])[2H])[C@H]3CC[C@H](C)CC3)s2)N2CC(F)(F)CCC2=O)C[C@@H]1F [Example 994] | 9 nM | 13100 ng·h/mL | 2000 ng/mL | 4 h | 2.4 h |  |  |  |  | 
